Values joined by “and” are separate entries in the source; they are usually repeats but may differ in a detail not shown here. Identical values can stand only once. Inconclusive results and toxic doses are left out. No stated cut-off is given here; in the data, active means T/C of 150% or more; inactive means T/C below 125%. Square brackets hold non-standard residues; d marks the D form. Peptide text beside a SMILES is read from it. * marks the point of attachment. ξ: configuration not given here. Cbz = O=C(OCc1ccccc1)*; ξA = CC(N)C(=O)O
Test system: L1210 leukemia ip in BDF1 mice, survival T/C
Experiment: NCI In Vivo Anticancer Drug Screen. Data for tumor model L1210 Leukemia (intraperitoneal) in B6D2F1 (BDF1) mice
Conditions: endpoint: mean survival time, higher = longer survival
Outline: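 Read-out is survival time, reported as the treated-group measurement over the vehicle-control measurement.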

[1] = dose: 100.0 mg/kg/injection, schedule: Q04DX003 (ip), vehicle: saline with Tween-80
[2] = dose: 200.0 mg/kg/injection, schedule: Q04DX003 (ip), vehicle: saline with Tween-80
[3] = dose: 400.0 mg/kg/injection, schedule: Q04DX003 (ip), vehicle: saline with Tween-80
[4] = dose: 100.0 mg/kg/injection, schedule: Q01DX001 (ip), vehicle: saline
[5] = dose: 200.0 mg/kg/injection, schedule: Q01DX001 (ip), vehicle: saline
[6] = dose: 400.0 mg/kg/injection, schedule: Q01DX001 (ip), vehicle: saline
[7] = dose: 100.0 mg/kg/injection, schedule: Q04DX002 (ip), vehicle: Klucel (hydroxypropylcellulose) (HPC)
[8] = dose: 25.0 mg/kg/injection, schedule: Q01DX009 (ip), vehicle: Klucel (hydroxypropylcellulose) (HPC)
[9] = dose: 50.0 mg/kg/injection, schedule: Q01DX009 (ip), vehicle: Klucel (hydroxypropylcellulose) (HPC)
[10] = dose: 100.0 mg/kg/injection, schedule: Q04DX003 (ip), vehicle: saline
[11] = dose: 200.0 mg/kg/injection, schedule: Q04DX003 (ip), vehicle: saline
[12] = dose: 400.0 mg/kg/injection, schedule: Q04DX003 (ip), vehicle: saline

Measured: T/C

COc1cc(Nc2cc(N)nc(N)n2)cc(OC)c1OC
inactive: [1] 95 % of control | [2] 98 % of control | [3] 88 % of control

C[CH2][Sn]([I])([CH2]C)[CH2]C
inactive: dose: 1.56 mg/kg/injection, schedule: Q01DX009 (ip), vehicle: saline 92 % of control | dose: 3.13 mg/kg/injection, schedule: Q01DX009 (ip), vehicle: saline 94 % of control | dose: 6.25 mg/kg/injection, schedule: Q01DX009 (ip), vehicle: saline 89 % of control | dose: 25.0 mg/kg/injection, schedule: Q04DX002 (ip), vehicle: gum acacia 87 % of control

c1cnc(OCCN2CC2)cn1
inactive: dose: 25.0 mg/kg/injection, schedule: Q01DX001 (ip), vehicle: saline 115 % of control | dose: 50.0 mg/kg/injection, schedule: Q01DX001 (ip), vehicle: saline 96 % of control

COc1cc2c(cc1OC)C13CCN4CC5=CCOC6CC(=O)N2C1C6C5CC43O (stereo unspecified)
inactive: [4] 89 % of control | [5] 86 % of control | [6] 89 % of control

Cc1ccc(NC(=O)Nc2onc(C)c2C)c([N+](=O)[O-])c1
inactive: dose: 25.0 mg/kg/injection, schedule: Q04DX003 (ip), vehicle: Klucel (hydroxypropylcellulose) (HPC) 93 % of control | dose: 50.0 mg/kg/injection, schedule: Q04DX003 (ip), vehicle: Klucel (hydroxypropylcellulose) (HPC) 93 % of control | dose: 100.0 mg/kg/injection, schedule: Q04DX003 (ip), vehicle: Klucel (hydroxypropylcellulose) (HPC) 93 % of control and 88 % of control

CN(C)C=NC1CCC(CC2CCCCC2)CC1 (stereo unspecified)
inactive: dose: 75.0 mg/kg/injection, schedule: Q04DX003 (ip), vehicle: Klucel (hydroxypropylcellulose) (HPC) 92 % of control | dose: 100.0 mg/kg/injection, schedule: Q01DX001 (ip), vehicle: Klucel (hydroxypropylcellulose) (HPC) 96 % of control | dose: 150.0 mg/kg/injection, schedule: Q04DX003 (ip), vehicle: Klucel (hydroxypropylcellulose) (HPC) 100 % of control | dose: 200.0 mg/kg/injection, schedule: Q01DX001 (ip), vehicle: Klucel (hydroxypropylcellulose) (HPC) 95 % of control | dose: 300.0 mg/kg/injection, schedule: Q04DX003 (ip), vehicle: Klucel (hydroxypropylcellulose) (HPC) 97 % of control

CCCN=Cc1cnc(C#N)c(N)n1
inactive: [7] 97 % of control | dose: 200.0 mg/kg/injection, schedule: Q04DX002 (ip), vehicle: Klucel (hydroxypropylcellulose) (HPC) 94 % of control | dose: 400.0 mg/kg/injection, schedule: Q04DX002 (ip), vehicle: Klucel (hydroxypropylcellulose) (HPC) 97 % of control

COc1ccccc1N1CCN(CCCC(O)c2ccc(F)cc2)CC1 (stereo unspecified)
inactive: dose: 10.0 mg/kg/injection, schedule: Q04DX003 (ip), vehicle: Klucel (hydroxypropylcellulose) (HPC) 91 % of control | dose: 12.5 mg/kg/injection, schedule: Q01DX009 (ip), vehicle: Klucel (hydroxypropylcellulose) (HPC) 98 % of control | dose: 20.0 mg/kg/injection, schedule: Q04DX003 (ip), vehicle: Klucel (hydroxypropylcellulose) (HPC) 98 % of control | [8] 100 % of control | dose: 40.0 mg/kg/injection, schedule: Q04DX003 (ip), vehicle: Klucel (hydroxypropylcellulose) (HPC) 90 % of control | [9] 98 % of control

CC(NC(=O)CNC(=O)OCc1ccccc1)C(N)=O (stereo not drawn) (Cbz-Gly-[ξA]-NH2)
inactive: [1] 102 % of control | [2] 101 % of control | [3] 101 % of control

COc1ccc(N=O)c(O)c1
inactive: [8] 104 % of control | dose: 50.0 mg/kg/injection, schedule: Q01DX001 (ip), vehicle: carboxymethylcellulose (CMC) 93 % of control | [9] 103 % of control | dose: 100.0 mg/kg/injection, schedule: Q01DX001 (ip), vehicle: carboxymethylcellulose (CMC) 97 % of control | dose: 100.0 mg/kg/injection, schedule: Q01DX009 (ip), vehicle: Klucel (hydroxypropylcellulose) (HPC) 106 % of control | dose: 200.0 mg/kg/injection, schedule: Q01DX001 (ip), vehicle: carboxymethylcellulose (CMC) 104 % of control | dose: 400.0 mg/kg/injection, schedule: Q01DX001 (ip), vehicle: carboxymethylcellulose (CMC) 101 % of control

OCC1OC(n2c(Cl)nc3ccccc32)C(O)C1O (stereo unspecified)
inactive: [4] 97 % of control | [5] 103 % of control | [6] 103 % of control

CC(C)OC(=O)c1cc(C(=O)OC(C)C)cc(S(N)(=O)=O)c1
inactive: dose: 100.0 mg/kg/injection, schedule: Q01DX001 (ip), vehicle: other 106 % of control | dose: 200.0 mg/kg/injection, schedule: Q01DX001 (ip), vehicle: other 98 % of control | dose: 400.0 mg/kg/injection, schedule: Q01DX001 (ip), vehicle: other 95 % of control

NC(Cc1cc(Br)c(O)c(Br)c1)C(=O)O (stereo unspecified)
inactive: [4] 97 % of control | dose: 100.0 mg/kg/injection, schedule: Q01DX009 (ip), vehicle: saline 90 % of control | [10] 103 % of control | [5] 97 % of control | dose: 200.0 mg/kg/injection, schedule: Q01DX009 (ip), vehicle: saline 109 % of control | [11] 98 % of control | [6] 91 % of control | dose: 400.0 mg/kg/injection, schedule: Q01DX009 (ip), vehicle: saline 93 % of control | [12] 97 % of control

O=c1c2ccccc2[nH]c(=S)n1-c1cccc(Cl)c1
inactive: dose: 75.0 mg/kg/injection, schedule: Q01DX001 (ip), vehicle: saline 93 % of control | dose: 150.0 mg/kg/injection, schedule: Q01DX001 (ip), vehicle: saline 89 % of control | dose: 300.0 mg/kg/injection, schedule: Q01DX001 (ip), vehicle: saline 91 % of control

Cn1[nH]cc(/C=N/C(N)=O)c1=O
inactive: [4] 93 % of control | [5] 91 % of control | [6] 87 % of control

OC12CCCCC1Oc1ccc3ccccc3c12 (stereo unspecified)
inactive: [4] 103 % of control | [5] 113 % of control | [6] 100 % of control

CCCCCCCCC1NC1CCCCCCCC(=O)OC (stereo unspecified)
inactive: dose: 25.0 mg/kg/injection, schedule: Q04DX002 (ip), vehicle: Klucel (hydroxypropylcellulose) (HPC) 101 % of control | dose: 50.0 mg/kg/injection, schedule: Q04DX002 (ip), vehicle: Klucel (hydroxypropylcellulose) (HPC) 107 % of control | [7] 98 % of control

CCCCOc1cc(C(=O)NCCN(CC)CC)c2ccccc2n1
inactive: dose: 6.25 mg/kg/injection, schedule: Q04DX003 (ip), vehicle: saline 98 % of control | dose: 12.5 mg/kg/injection, schedule: Q04DX003 (ip), vehicle: saline 98 % of control | dose: 25.0 mg/kg/injection, schedule: Q04DX003 (ip), vehicle: saline 107 % of control

OCC(O)C(O)C(O)C(O)C(O)c1nc2ccccc2[nH]1 (stereo unspecified)
inactive: dose: 100.0 mg/kg/injection, schedule: Q01DX009 (ip), vehicle: saline with Tween-80 101 % of control | [1] 97 % of control | dose: 200.0 mg/kg/injection, schedule: Q01DX009 (ip), vehicle: saline with Tween-80 98 % of control | [2] 93 % of control | dose: 400.0 mg/kg/injection, schedule: Q01DX009 (ip), vehicle: saline with Tween-80 96 % of control | [3] 103 % of control

NC(=O)Nc1ccccc1O
inactive: dose: 75.0 mg/kg/injection, schedule: Q04DX002 (ip), vehicle: saline with Tween-80 102 % of control | dose: 150.0 mg/kg/injection, schedule: Q04DX002 (ip), vehicle: saline with Tween-80 87 % of control | dose: 300.0 mg/kg/injection, schedule: Q04DX002 (ip), vehicle: saline with Tween-80 97 % of control

CC1=CC(=O)c2c(O)ccc(O)c2C1=O
inactive: dose: 2.5 mg/kg/injection, schedule: Q04DX003 (ip), vehicle: other 95 % of control | dose: 5.0 mg/kg/injection, schedule: Q01DX001 (ip), vehicle: saline 101 % of control | dose: 5.0 mg/kg/injection, schedule: Q04DX003 (ip), vehicle: other 103 % of control | dose: 10.0 mg/kg/injection, schedule: Q01DX001 (ip), vehicle: saline 97 % of control | dose: 10.0 mg/kg/injection, schedule: Q04DX003 (ip), vehicle: other 94 % of control | dose: 20.0 mg/kg/injection, schedule: Q01DX001 (ip), vehicle: saline 100 % of control | dose: 40.0 mg/kg/injection, schedule: Q01DX001 (ip), vehicle: saline 102 % of control

[N-]=[N+]=NC(=O)C1(Br)CCC2c3ccccc3C([N+](=O)[O-])(C1)c1ccccc12 (stereo unspecified)
inactive: [10] 101 % of control | [11] 98 % of control | [12] 93 % of control

O=C1OC(O)C(Cl)=C1Cl (stereo unspecified)
inactive: dose: 6.25 mg/kg/injection, schedule: Q04DX002 (ip), vehicle: saline with Tween-80 107 % of control | dose: 12.5 mg/kg/injection, schedule: Q04DX002 (ip), vehicle: saline with Tween-80 103 % of control | dose: 25.0 mg/kg/injection, schedule: Q04DX002 (ip), vehicle: saline with Tween-80 114 % of control
